Data reported in patent publication US8969554B2, “6-acyl-1,2,4-triazine-3,5-dione derivative and herbicides” (Kumiai Chemical Industry Co., Ltd., priority 2010, dated 2015).

Key:
Assay type in all cases: in vivo
Echinochloa crus-galli [1] = test: Herbicidal activity by field foliage treatment (Test example 3); set-up: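 index 0 to 10 in 10% steps of herbicidal effect with 10 meaning complete death and 0 below 10%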; settings: 1000 g effective component per hectare, day 14 after the treatment
Method in brief: (§1)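 Potted field-soil plants grown 2 weeks in a greenhouse were sprayed over the whole foliage with diluted wettable powder at 1000 L/ha, delivering 1000 g active ingredient per hectare. Herbicidal effect scored by visual criteria 14 days after treatment.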

Setaria viridis = test: as above; settings: 1000 g effective component per hectare, day 14 after the treatment;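 also: index 0 to 10 in 10% steps of herbicidal effect with 10 meaning complete death and 0 below 10%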
Method in brief: as §1

Echinochloa crus-galli [2] = test: Herbicidal activity by field soil treatment (Test example 2); set-up: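 index 0 to 10 in 10% steps of herbicidal effect with 10 meaning complete death and 0 below 10%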; settings: 1000 g effective component per hectare, day 21 after the treatment
Method in brief: (§2)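 Herbicidal effect is rated by fixed criteria on day 21 post-treatment. Before that, pots of field soil holding freshly sown, soil-covered seeds receive a surface spray of diluted wettable powder (1000 g per hectare effective component, spray volume 1000 liters per hectare) and are kept in a greenhouse.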

A. retroflexus [3] = test: as above; set-up: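 index 0 to 10 in 10% steps of herbicidal effect with 10 meaning complete death and 0 below 10%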; settings: 1000 g effective component per hectare, day 21 after the treatment
Method in brief: as §2

Indian millet [4] = test: as above; set-up: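 index 0 to 10 in 10% steps of herbicidal effect with 10 meaning complete death and 0 below 10%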; settings: 1000 g effective component per hectare, day 21 after the treatment
Method in brief: as §2

Echinochloa oryzicola = test: Herbicidal activity by paddy field soil treatment (Test Example 1); set-up: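 index 0 to 10 in 10% steps of herbicidal effect with 10 meaning complete death and 0 below 10%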; settings: 1000 g of effective component per hectare, evaluated on day 21 after the treatment, criteria of Table 72
Method in brief: (§3)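 Herbicidal effect is rated on a graded scale 21 days after treatment. Treatment: wettable powder diluted in water, applied onto the flood water (3 cm deep) of sown paddy-soil pots on the day after sowing, 1000 g active component per hectare, greenhouse cultivation.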

Scirpus juncoides Rocxb. = test: as above; set-up: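 index 0 to 10 in 10% steps of herbicidal effect with 10 meaning complete death and 0 below 10%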; settings: applied on water surface, 1000 g of effective component per hectare, day 21 after the treatment
Method in brief: as §3

Monochoria vaginalis = test: as above; set-up: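 index 0 to 10 in 10% steps of herbicidal effect with 10 meaning complete death and 0 below 10%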; settings: 1000 g of effective component per hectare, evaluated on day 21 after the treatment, criteria of Table 72
Method in brief: as §3

foxtail = test: Herbicidal activity by field soil treatment (Test example 2); settings: 1000 g effective component per hectare, day 21 after the treatment;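 also: index 0 to 10 in 10% steps of herbicidal effect with 10 meaning complete death and 0 below 10%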
Method in brief: as §2

A. retroflexus [5] = test: Herbicidal activity by field foliage treatment (Test example 3); set-up: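 index 0 to 10 in 10% steps of herbicidal effect with 10 meaning complete death and 0 below 10%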; settings: 1000 g effective component per hectare, day 14 after the treatment
Method in brief: (§4)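 Herbicidal effect is rated on a scoring scale 14 days after treatment. Seedlings raised 2 weeks in field soil under glass receive an overall foliar spray of wettable powder diluted in water, giving 1000 g active component per hectare.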

Indian millet [6] = test: as above; set-up: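 index 0 to 10 in 10% steps of herbicidal effect with 10 meaning complete death and 0 below 10%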; settings: 1000 g effective component per hectare, day 14 after the treatment
Method in brief: as §4

| SMILES | herbicidal effect index, Echinochloa crus-galli (Echinochloa crus-galli [1]) | herbicidal effect index, Setaria viridis (Setaria viridis) | herbicidal effect index, Echinochloa crus-galli (Echinochloa crus-galli [2]) | herbicidal effect index, Amaranthus retroflexus (A. retroflexus [3]) | herbicidal effect index, Abutilon theophrasti (Indian millet [4]) | Herbicidal effects index number, Echinochloa oryzicola (Echinochloa oryzicola) | herbicidal effect index, S. juncoides Rocxb. (Scirpus juncoides Rocxb.) | Herbicidal effects index number, Monochoria vaginalis (Monochoria vaginalis) | herbicidal effect index, Setaria viridis (foxtail) | herbicidal effect index, Amaranthus retroflexus (A. retroflexus [5]) | herbicidal effect index, Abutilon theophrasti (Indian millet [6]) |
| --- | --- | --- | --- | --- | --- | --- | --- | --- | --- | --- | --- |
| Cn1nc(C(=O)C2=C(O)CCCC2=O)c(=O)n(N2CCOCC2)c1=O [I-202] | 9 | 9 | 10 | 10 | 9 | 10 | 10 | 10 | 9 | 9 | 9 |
| Cn1nc(C(=O)C2=C(O)CCCC2=O)c(=O)n(C)c1=S [I-265] | 8 | 9 | 10 | 10 | 10 | 10 | 10 | 10 | 10 | 10 | 9 |
| Cn1nc(C(=O)C2=C(O)CCCC2=O)c(=O)n(-c2ccccc2-c2ccccc2)c1=O [I-269] | 10 | 8 | 8 | 10 | 9 | 8 | 10 | 8 | 9 | 10 | 9 |
| Cn1nc(C(=O)C2=C(O)CCCC2=O)c(=O)n(-c2ccc(-c3ccccc3)cc2)c1=O [I-271] | 10 | 7 | 10 | 10 | 10 | 8 | 10 | 8 | 10 | 10 | 9 |
| Cn1nc(C(=O)C2=C(O)CCCC2=O)c(=O)n(-c2cccnc2Cl)c1=O [I-276] | 10 | 10 | 9 | 10 | 10 | 8 | 9 | 8 | 9 | 10 | 9 |
| Cc1ncccc1-n1c(=O)c(C(=O)C2=C(O)CCCC2=O)nn(C)c1=O [I-277] | 10 | 9 | 8 | 8 | 7 | 9 | 10 | 9 | 8 | 10 | 9 |
| Cn1nc(C(=O)C2=C(O)CCCC2=O)c(=O)n(-c2ccnc(Br)c2)c1=O [I-281] | 9 | 7 | 9 | 10 | 9 | 10 | 10 | 10 | 9 | 9 | 9 |
| Cc1cc(Br)ccc1-n1c(=O)c(C(=O)C2=C(O)CCCC2=O)nn(C)c1=O [I-282] | 8 | 7 | 10 | 10 | 9 | 10 | 10 | 10 | 10 | 8 | 9 |
| Cc1ccc(C(F)(F)F)cc1-n1c(=O)c(C(=O)C2=C(O)CCCC2=O)nn(C)c1=O [I-284] | 9 | 7 | 10 | 10 | 9 | 10 | 10 | 10 | 8 | 9 | 8 |
| Cc1cccc(OC(F)(F)F)c1-n1c(=O)c(C(=O)C2=C(O)CCCC2=O)nn(C)c1=O [I-285] | 9 | 9 | 10 | 10 | 10 | 10 | 10 | 10 | 10 | 8 | 7 |
| CC(C)c1ccccc1-n1c(=O)c(C(=O)C2=C(O)CCCC2=O)nn(C)c1=O [I-286] | 10 | 10 | 10 | 10 | 9 | 10 | 9 | 10 | 9 | 10 | 9 |
| CCc1ccccc1-n1c(=O)c(C(=O)C2=C(O)CCCC2=O)nn(C)c1=O [I-288] | 9 | 10 | 10 | 10 | 9 | 10 | 10 | 10 | 9 | 10 | 10 |
| Cc1ccc(-n2c(=O)c(C(=O)C3=C(O)CCCC3=O)nn(C)c2=O)cn1 [I-289] | 9 | 7 | 9 | 10 | 9 | 10 | 10 | 10 | 7 | 10 | 9 |
| COc1cc(-n2c(=O)c(C(=O)C3=C(O)CCCC3=O)nn(C)c2=O)c(F)cc1Cl [I-297] | 9 | 9 | 10 | 10 | 9 | 10 | 10 | 10 | 9 | 8 | 8 |
| COc1ccc(-n2c(=O)c(C(=O)C3=C(O)CCCC3=O)nn(C)c2=O)c(OC)c1OC [I-298] | 10 | 8 | 7 | 10 | 10 | 10 | 10 | 10 | 7 | 10 | 9 |
